{"source": "patent US20240299376A1", "about": "“METHOD OF TREATING A CONDITION USING A […] EFFECTIVE DOSE OF 1-(1-OXO-1,2-DIHYDROISOQUINOLIN-5-YL)-5-(TRIFLUOROMETHYL)-N-(2-(TRIFLUOROMETHYL)PYRIDIN-4-YL)-1H-PYRAZOLE-4-CARBOXAMIDE” (Janssen Pharmaceutica NV, priority 2021, published 2024)", "key": {"[1]": {"experiment": "Single IV dose plasma PK", "format": "in vivo, monkey", "experimental": "(§1) Single intravenous (IV) dose PK was conducted in mice (two strains), rats, monkeys, and dogs at a dose of 1 mg/kg in 70% PEG400 (PEG400/water 70:30) by bolus injection. The time course for plasma sample was optimized to fully characterize the disposition profile in each species. PK analysis was by non-compartmental method."}, "[2]": {"test_system": "SU-DHL4 (no NF-κB mut)", "experiment": "Anti-proliferative activity, DLBCL cell line panel", "format": "cell-based", "settings": "Homo sapiens, SU-DHL-4, 192 h; antiproliferation after 8 days of treatment", "experimental": "Four ABC-DLBCL cell lines with activating mutations in the canonical NFκB pathway were evaluated (OCI-LY3 (CARD11, MYD88 & A20 mutations), TMD8, HBL1, and OCI-LY10 (CD79B & MYD88 mutations)), which are generally sensitive to NF-κB pathway inhibition. None of the GCB-DLBCL cell lines harbor mutations in the NF-κB pathway. The GCB-DLBCL cell lines served as a negative control to exclude compounds with general cytotoxic effects.\nAt concentrations ≥20 μM general cytotoxicity was observed."}, "[3]": {"test_system": "primary T cells", "experiment": "Treg/Teff ratio after CD3/28 stimulation of primary T cells (flow cytometry)", "format": "cell-based, human", "settings": "compound added 24 hours after CD3/28 stimulation, for 72 hours", "excerpt": "The role of MALT1 in the immunologic activity of T cells was investigated by looking at the proportions of Treg and effector T cells (Teff). These cells are in a dynamic balance and their ratio correlates with the effectiveness of protective immunity. An accumulation of Tregs, resulting in a higher Treg/Teff ratio within tumor tissue, is associated with worse prognosis in cancer. Whiteside T L. What are regulatory T cells (Treg) regulating in cancer and why? Semin Cancer Biol. 2012, 22, 327-34. In vitro, activation of T cells through TCR stimulation increases the Treg/Teff ratio by increasing the Treg population, as defined by CD4^+CD25^hiFOXP3^hi.\nAfter 24 hours of pre-stimulation, the compound was added for 72 hours. Alternatively, the compound was added together with the CD3/28 stimulus for 96 hours. Cells were stained for flow cytometric analysis (BD Facs Verse). After gating on the living singlet population, the proportions of CD8^+ Teff and CD4^+CD25^hiFOXP3^hi Treg subpopulations were analysed."}, "[4]": {"experiment": "Oral bioavailability, 5 mg/kg solution in PEG400", "format": "in vivo, mice, rats, dogs, and monkeys", "settings": "plasma, oral 5 mg/kg", "excerpt": "(Data for mice, rats, and monkeys are not shown.)"}, "[5]": {"experiment": "Single IV dose plasma PK", "format": "in vivo, dog", "experimental": "as §1"}, "[6]": {"experiment": "14-day oral toxicity study toxicokinetics in Sprague-Dawley rats", "format": "in vivo", "settings": "rat, plasma; for Cmax / AUC(0-t): mean; for AUC(0-t): read-out: AUC0-24 h; for Tmax: range", "experimental": "Repeated-dose PK (toxicokinetics) were obtained as part of the repeated oral dose toleration toxicity studies in rats and dogs.\nThere was no further increase in the daily exposure parameters at 1,000 mg/kg relative to those from 200 mg/kg/day. There was no effect of gender on exposure and there was no increase in daily exposure parameters on Day 14 relative to those observed after the first dose."}, "[7]": {"test_system": "U2932 (A20/TAK1 mut)", "experiment": "Anti-proliferative activity, DLBCL cell line panel", "format": "cell-based", "settings": "Homo sapiens, U2932, 192 h; antiproliferation after 8 days of treatment"}, "[8]": {"settings": "male, plasma, Monkey, cynomolgus, 3M, 1 mg/kg IV in 70% PEG400, mean"}, "[9]": {"settings": "male, plasma, Dog, beagle, 3M, 1 mg/kg IV in 70% PEG400, mean"}, "[10]": {"settings": "female, 30 mg/kg/day, female, Day 0, 30 mg/kg/day"}, "[11]": {"settings": "female, 30 mg/kg/day, female, Day 13, 30 mg/kg/day"}, "[12]": {"settings": "female, 200 mg/kg/day, female, Day 0, 200 mg/kg/day"}, "[13]": {"settings": "female, 200 mg/kg/day, female, Day 13, 200 mg/kg/day"}, "[14]": {"settings": "female, 1000 mg/kg/day, female, Day 0, 1,000 mg/kg/day"}, "[15]": {"settings": "female, 1000 mg/kg/day, female, Day 13, 1,000 mg/kg/day"}, "[16]": {"settings": "male, 30 mg/kg/day, male, Day 0, 30 mg/kg/day"}, "[17]": {"settings": "male, 30 mg/kg/day, male, Day 13, 30 mg/kg/day"}, "[18]": {"settings": "male, 200 mg/kg/day, male, Day 0, 200 mg/kg/day"}, "[19]": {"settings": "male, 200 mg/kg/day, male, Day 13, 200 mg/kg/day"}, "[20]": {"settings": "male, 1000 mg/kg/day, male (4M), Day 13, 1,000 mg/kg/day"}, "[21]": {"settings": "male, 1000 mg/kg/day, male, Day 0, 1,000 mg/kg/day"}}, "note": "Where two headings read alike, the source gives them in different places."}
{"smiles": "O=C(Nc1ccnc(C(F)(F)F)c1)c1cnn(-c2cccc3c(=O)[nH]ccc23)c1C(F)(F)F", "note": "[Compound A, 1-(1-oxo-1,2-dihydroisoquinolin-5-yl)-5-(trifluoromethyl)-N-[2-(trifluoromethyl)pyridin-4-yl]-1H-pyrazole-4-carboxamide]", "values": [{"measurement": "AUC(0-inf)", "setting": "[1]; [8]", "result": 16.4, "unit": "µg·h/mL"}, {"measurement": "C0", "setting": "[1]; [8]", "result": 1.84, "unit": "µg/mL"}, {"measurement": "clearance", "setting": "[1]; [8]", "result": 1.12, "unit": "mL/min/kg"}, {"measurement": "half-life", "setting": "[1]; [8]", "result": 11.9, "unit": "h"}, {"measurement": "Vd", "setting": "[1]; male, plasma, Monkey, cynomolgus, 3M, 1 mg/kg IV in 70% PEG400, mean, read-out: Vdss", "result": 0.748, "unit": "L/kg"}, {"measurement": "CL as fraction of liver blood flow (LBF)", "setting": "[1]; monkey, LBF 43.6 mL/min/kg", "result": 1.7, "unit": "%"}, {"measurement": "IC50", "setting": "[2]", "result": 6, "unit": "µM"}, {"measurement": "effect on Treg and Teff populations", "setting": "[3]", "result": "did not influence the Treg and Ter populations"}, {"measurement": "bioavailability", "setting": "[4]; Sprague-Dawley, rat, rats", "result": 51.2, "unit": "%"}, {"measurement": "bioavailability", "setting": "[4]; beagle, dog, dogs", "result": 100, "unit": "%"}, {"measurement": "bioavailability", "setting": "[4]; mouse, rat, dog, monkey, all species (mice, rats, dogs, monkeys)", "result": "> 50", "unit": "%"}, {"measurement": "CL as fraction of liver blood flow (LBF)", "setting": "[5]; dog, LBF 30.9 mL/min/kg", "result": 3.0, "unit": "%"}, {"measurement": "AUC(0-inf)", "setting": "[5]; [9]", "result": 23.1, "unit": "µg·h/mL"}, {"measurement": "C0", "setting": "[5]; [9]", "result": 2.07, "unit": "µg/mL"}, {"measurement": "clearance", "setting": "[5]; [9]", "result": 0.772, "unit": "mL/min/kg"}, {"measurement": "half-life", "setting": "[5]; [9]", "result": 16.9, "unit": "h"}, {"measurement": "Vd", "setting": "[5]; male, plasma, Dog, beagle, 3M, 1 mg/kg IV in 70% PEG400, mean, read-out: Vdss", "result": 1.01, "unit": "L/kg"}, {"measurement": "Cmax", "setting": "[6]; [10]", "result": 27.1, "unit": "µg/mL"}, {"measurement": "AUC(0-t)", "setting": "[6]; [10]", "result": 366, "unit": "µg·h/mL"}, {"measurement": "Tmax", "setting": "[6]; [10]", "result": "1 to 7", "unit": "h"}, {"measurement": "Cmax", "setting": "[6]; [11]", "result": 33.4, "unit": "µg/mL"}, {"measurement": "AUC(0-t)", "setting": "[6]; [11]", "result": 451, "unit": "µg·h/mL"}, {"measurement": "Tmax", "setting": "[6]; [11]", "result": "2 to 4", "unit": "h"}, {"measurement": "Cmax", "setting": "[6]; [12]", "result": 93.1, "unit": "µg/mL"}, {"measurement": "AUC(0-t)", "setting": "[6]; [12]", "result": 93.1, "unit": "µg·h/mL"}, {"measurement": "Cmax", "setting": "[6]; [13]", "result": 96.1, "unit": "µg/mL"}, {"measurement": "AUC(0-t)", "setting": "[6]; [13]", "result": 1300, "unit": "µg·h/mL"}, {"measurement": "Tmax", "setting": "[6]; [13]", "result": "2 to 7", "unit": "h"}, {"measurement": "Cmax", "setting": "[6]; [14]", "result": 83.2, "unit": "µg/mL"}, {"measurement": "AUC(0-t)", "setting": "[6]; [14]", "result": 1140, "unit": "µg·h/mL"}, {"measurement": "Tmax", "setting": "[6]; [14]", "result": "2 to 4", "unit": "h"}, {"measurement": "Cmax", "setting": "[6]; [15]", "result": 83.2, "unit": "µg/mL"}, {"measurement": "AUC(0-t)", "setting": "[6]; [15]", "result": 83.2, "unit": "µg·h/mL"}, {"measurement": "Cmax", "setting": "[6]; male, 30 mg/kg/day, male, Day 0 (first day of dosing), 30 mg/kg/day", "result": 24.4, "unit": "µg/mL"}, {"measurement": "AUC(0-t)", "setting": "[6]; [16]", "result": 247, "unit": "µg·h/mL"}, {"measurement": "Tmax", "setting": "[6]; [16]", "result": "2 to 4", "unit": "h"}, {"measurement": "Cmax", "setting": "[6]; [17]", "result": 26.7, "unit": "µg/mL"}, {"measurement": "AUC(0-t)", "setting": "[6]; [17]", "result": 305, "unit": "µg·h/mL"}, {"measurement": "Tmax", "setting": "[6]; [17]", "result": 2, "unit": "h"}, {"measurement": "Cmax", "setting": "[6]; [18]", "result": 96.7, "unit": "µg/mL"}, {"measurement": "AUC(0-t)", "setting": "[6]; [18]", "result": 1410, "unit": "µg·h/mL"}, {"measurement": "Tmax", "setting": "[6]; [18]", "result": "7 to 9", "unit": "h"}, {"measurement": "Cmax", "setting": "[6]; [19]", "result": 63.9, "unit": "µg/mL"}, {"measurement": "AUC(0-t)", "setting": "[6]; [19]", "result": 803, "unit": "µg·h/mL"}, {"measurement": "Tmax", "setting": "[6]; [19]", "result": "2 to 7", "unit": "h"}, {"measurement": "Cmax", "setting": "[6]; [20]", "result": 83.2, "unit": "µg/mL"}, {"measurement": "AUC(0-t)", "setting": "[6]; [20]", "result": 898, "unit": "µg·h/mL"}, {"measurement": "Tmax", "setting": "[6]; [20]", "result": "2 to 4", "unit": "h"}, {"measurement": "Cmax", "setting": "[6]; [21]", "result": 90.8, "unit": "µg/mL"}, {"measurement": "AUC(0-t)", "setting": "[6]; [21]", "result": 1120, "unit": "µg·h/mL"}, {"measurement": "Tmax", "setting": "[6]; [21]", "result": "2 to 9", "unit": "h"}, {"measurement": "IC50", "setting": "[7]", "result": 3.9, "unit": "µM"}]}
